Patent publication US10954214B2 (Janssen Pharmaceutica NV, priority 2016, dated 2021)

Experiments:
[1] = biological target: full-length MALT1 protein (Strep-MALT1(1-824)-His) (Homo sapiens (Human), UniProt Q9UDY8); test: MALT1 Biochemical Protease Assay (Ac-LRSR-AMC substrate); conditions: 10 nM FL MALT1, 200 μM Ac-LRSR-AMC, 4 h at RT; read-out: MALT1_Biochemical activity (Ac-LRSR-amc) IC50
Procedure, shortened: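 Fluorescence from AMC release off the quenched LRSR substrate was read after a 4 h reaction at RT. Values were normalised to no-enzyme and uninhibited controls and fitted for IC50 and Hill coefficient.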

[2] = system: IL6 secretion by TMD8 ABC-DLBCL cells; test: Human IL6 Mesoscale assay (TMD-8); format: cell-based; conditions: Homo sapiens, TMD8; TMD-8 cells, 24 h
Procedure, shortened: (§1)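 100,000 cells/well treated with compound in 9 twofold steps from 15 μM to 58.6 nM (0.3% DMSO) for 24 h at 37° C; supernatant cytokine measured by MSD electrochemiluminescence sandwich immunoassay. DMSO wells set maximum signal, BTK inhibitor RN486 (30 nM to 131 pM) set maximum inhibition.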

OCI-Ly3 cells = test: 4-day proliferation assay, OCI-Ly3; format: cell-based, human; conditions: Homo sapiens, 96 h, 4 days incubation, CellTiterGLO, read-out: Anti-proliferation: OCI-LY-3 IC50
Procedure, shortened: (§2)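 Each line was plated at 10,000 cells per well for linear growth, with no beta-mercaptoethanol during the assay. OCI-Ly3 cells were below passage 10.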

Jurkat cells = test: PMA Induced IL2 Production In Jurkat Cells; format: cell-based; conditions: Homo sapiens, PMA/Ionomycin, 20 h, read-out: IL-2 prod h Jurkat PMA IC50
Experimental: Jurkat cells were maintained in complete RPMI 1640 media containing 10% fetal bovine serum, 10 mM HEPES, 100 units/mL of penicillin and 100 μg/mL of streptomycin. Prior to the assay, compounds were made 2- to 4-fold serial dilutions in DMSO. A volume of 10 μL of DMSO-diluted compound in each well were further diluted into 240 μL RPMI1640 complete media. Jurkat cells were harvested by centrifuge at 1200 RPM for 5 min, washed one time with RPMI 1640 media, and suspended in fresh complete RPMI 1640 media at concentration of 1.25×10^6 cell/mL. A volume of 160 uL of Jurkat cells (2×10^5 cells) were seeded in each well of 96 well plate-bottom plates. A volume of 20 uL of diluted compound in RMPI 1640 complete media were added to each well and incubated with Jurkat cells for 30 min at 37° C. in a 5% CO2 incubator. A volume 20 μL of diluted PMA/Ionomycin (81 nM/1.3 uM respectively, ebioscience, catalog number 00-4970-93) in RMPI 1640 complete media were added to each well. After incubation at 37° C. in 5% CO2 incubator for 20 h, supernatants were harvested. IL-2 concentration was assessed by ELISA (IL2 Duoset, R&D Systems, catalog number DY202). Colorimetric intensity at 450 nm was read by Spectramax plate reader and analyzed with Softmax Pro software. Cell viability was assessed by Cell Titer Glo kit (Promega, catalog number G7571) using Victor Luminescence reader (Victor 3V 4202938 by Perkin Elmer).

[3] = system: IL10 secretion by TMD8 ABC-DLBCL cells; test: Human IL10 Mesoscale assay (TMD-8); format: cell-based; conditions: Homo sapiens, TMD8; TMD-8 cells, 24 h
Procedure, shortened: as §1

TMD8 cells = test: 4-day proliferation assay, TMD8; format: cell-based; conditions: Homo sapiens, 96 h, 4 days incubation, CellTiterGLO, read-out: Anti-proliferation: TMD-8 IC50
Procedure, shortened: as §2

full-length MALT1 protein (Strep-MALT1(1-824)-His), sequence (Q9UDY8 whole entry): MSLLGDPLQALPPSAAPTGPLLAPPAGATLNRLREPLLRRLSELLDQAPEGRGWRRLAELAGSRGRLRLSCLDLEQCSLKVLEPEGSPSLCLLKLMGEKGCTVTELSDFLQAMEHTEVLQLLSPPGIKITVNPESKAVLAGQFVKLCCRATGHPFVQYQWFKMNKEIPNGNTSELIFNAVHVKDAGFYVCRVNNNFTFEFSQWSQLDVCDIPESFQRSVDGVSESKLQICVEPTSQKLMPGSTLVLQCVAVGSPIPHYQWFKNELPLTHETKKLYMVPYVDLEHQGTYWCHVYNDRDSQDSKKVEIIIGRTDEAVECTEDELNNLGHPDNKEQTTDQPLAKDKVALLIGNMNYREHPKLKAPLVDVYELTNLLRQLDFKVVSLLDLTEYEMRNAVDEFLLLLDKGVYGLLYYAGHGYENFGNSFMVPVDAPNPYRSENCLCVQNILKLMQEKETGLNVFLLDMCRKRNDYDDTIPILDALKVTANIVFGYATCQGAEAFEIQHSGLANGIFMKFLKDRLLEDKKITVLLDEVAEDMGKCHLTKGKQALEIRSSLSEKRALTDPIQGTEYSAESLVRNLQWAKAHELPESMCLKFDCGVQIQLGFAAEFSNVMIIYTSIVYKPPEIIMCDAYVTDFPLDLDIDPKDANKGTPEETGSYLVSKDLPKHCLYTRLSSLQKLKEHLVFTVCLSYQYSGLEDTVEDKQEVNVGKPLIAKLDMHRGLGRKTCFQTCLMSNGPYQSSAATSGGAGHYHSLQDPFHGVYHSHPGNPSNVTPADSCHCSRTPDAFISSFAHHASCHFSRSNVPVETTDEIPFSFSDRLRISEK

Row | IC50 [1] [nM] | IC50 [2] [nM] | IC50 (OCI-Ly3 cells) [nM] | IC50 (Jurkat cells) [nM] | IC50 [3] [nM] | SMILES | IC50 (TMD8 cells) [nM]
1 | 182 | ~93 | 540 | 130 | 195 | Cc1ncn(-c2ccc(NC(=O)c3cnn(-c4cncc5ccccc45)c3C(F)(F)F)cc2Cl)n1 [Cpd 55, N-(3-chloro-4-(3-methyl-1H-1,2,4-triazol-1-yl)phenyl)-1-(isoquinolin-4-yl)-5-(trifluoromethyl)-1H-pyrazole-4-carboxamide] | 5250
2 | 891 | ~2090 | 1580 | 300 | 851 | N#Cc1ncc(NC(=O)c2cnn(-c3cncc4ccccc34)c2C(F)(F)F)cc1F [Cpd 41, N-(6-cyano-5-fluoropyridin-3-yl)-1-(isoquinolin-4-yl)-5-(trifluoromethyl)-1H-pyrazole-4-carboxamide] | > 20000
3 | 813 | 6030 | 10700 | 3240 | 2880 | COC(C)c1c(C(=O)Nc2cnc(-n3nccn3)c(Cl)c2)cnn1-c1cccc2ncccc12 (stereo not drawn) [Cpd 35, N-(5-Chloro-6-(2H-1,2,3-triazol-2-yl)pyridin-3-yl)-5-(1-methoxyethyl)-1-(quinolin-5-yl)-1H-pyrazole-4-carboxamide] | 11000
4 | 631 | ~830 | 300 | 450 | ~2140 | CN1CCN(C(=O)c2ncc(NC(=O)c3cnn(-c4cncc5ccccc45)c3C(F)(F)F)cc2Cl)CC1 [Cpd 48, N-(5-chloro-6-(4-methylpiperazine-1-carbonyl)pyridin-3-yl)-1-(isoquinolin-4-yl)-5-(trifluoromethyl)-1H-pyrazole-4-carboxamide] | 16200
5 | 45 | 62 | 200 | 96 | 126 | Cc1ncnn1-c1ccc(NC(=O)c2cnn(-c3cncc4ccccc34)c2C(F)(F)F)cc1Cl [Cpd 51, N-(3-Chloro-4-(5-methyl-1H-1,2,4-triazol-1-yl)phenyl)-1-(isoquinolin-4-yl)-5-(trifluoromethyl)-1H-pyrazole-4-carboxamide] | ~6610
6 | 60 | 102 | ~260 | 54 | 81 | O=C(Nc1ccc(-n2ccnn2)c(Cl)c1)c1cnn(-c2cncc3ccccc23)c1C(F)(F)F [compound 43, N-(3-chloro-4-(1H-1,2,3-triazol-1-yl)phenyl)-1-(isoquinolin-4-yl)-5-(trifluoromethyl)-1H-pyrazole-4-carboxamide] | 4680
7 | 155 | ~83 | 410 | 18 | 76 | N#Cc1ncc(NC(=O)c2cnn(-c3cncc4ccccc34)c2C(F)(F)F)cc1C(F)(F)F [Cpd 49, N-(6-cyano-5-(trifluoromethyl)pyridin-3-yl)-1-(isoquinolin-4-yl)-5-(trifluoromethyl)-1H-pyrazole-4-carboxamide] | 5010
8 | 56 | ~46 | 630 | 22 | 32 | O=C(Nc1cnc(-n2cccn2)c(Cl)c1)c1cnn(-c2cncc3ccccc23)c1C(F)(F)F [Cpd 46, N-(5-Chloro-6-(1H-pyrazol-1-yl)pyridin-3-yl)-1-(isoquinolin-4-yl)-5-(trifluoromethyl)-1H-pyrazole-4-carboxamide] | 9330
9 | 398 | 355 | 340 | 73 | 204 | CN1CCC(Oc2ncc(NC(=O)c3cnn(-c4cncc5ccccc45)c3C(F)(F)F)cc2Cl)CC1 [Cpd 45, N-(5-chloro-6-((1-methylpiperidin-4-yl)oxy)pyridin-3-yl)-1-(isoquinolin-4-yl)-5-(trifluoromethyl)-1H-pyrazole-4-carboxamide] | ~9330
10 | 9 | ~11 | ~220 | 16 | 7 | O=C(Nc1cnc(-n2nccn2)c(Cl)c1)c1cnn(-c2cccc3occc23)c1C(F)(F)F [Cpd 34, 1-(Benzofuran-4-yl)-N-(5-chloro-6-(2H-1,2,3-triazol-2-yl)pyridin-3-yl)-5-(trifluoromethyl)-1H-pyrazole-4-carboxamide] | ~12000
11 | 162 | 117 | 560 | 11 | ~110 | O=C(Nc1cnc(N2CCCS2(=O)=O)c(Cl)c1)c1cnn(-c2cncc3ccccc23)c1C(F)(F)F [Cpd 42, N-(5-Chloro-6-(1,1-dioxidoisothiazolidin-2-yl)pyridin-3-yl)-1-(isoquinolin-4-yl)-5-(trifluoromethyl)-1H-pyrazole-4-carboxamide] | 6170
12 | 74 | 93 | ~1950 | 740 | 129 | COc1ncc(NC(=O)c2cnn(-c3cncc4ccccc34)c2C(F)(F)F)cc1C#N [Cpd 24, N-(5-cyano-6-methoxypyridin-3-yl)-1-(isoquinolin-4-yl)-5-(trifluoromethyl)-1H-pyrazole-4-carboxamide] | ~10000
13 | 20 | 107 | 90 | 31 | 47 | O=C(Nc1cnc(-c2ncco2)c(Cl)c1)c1cnn(-c2cncc3ccccc23)c1C(F)(F)F [Cpd 50, N-(5-Chloro-6-(oxazol-2-yl)pyridin-3-yl)-1-(isoquinolin-4-yl)-5-(trifluoromethyl)-1H-pyrazole-4-carboxamide] | 7080
14 | 100 | 200 | 1070 | 380 | 240 | Cc1ncn(-c2ncc(NC(=O)c3cnn(-c4cncc5ccccc45)c3C(F)(F)F)cc2Cl)n1 [Cpd 53, N-(5-Chloro-6-(3-methyl-1H-1,2,4-triazol-1-yl)pyridin-3-yl)-1-(isoquinolin-4-yl)-5-(trifluoromethyl)-1H-pyrazole-4-carboxamide] | ~13500
15 | 11 | ~48 | ~190 | 9 | ~10 | N#Cc1cc(NC(=O)c2cnn(-c3cncc4ccccc34)c2C(F)(F)F)cnc1-n1nccn1 [Cpd 47, N-(5-cyano-6-(2H-1,2,3-triazol-2-yl)pyridin-3-yl)-1-(isoquinolin-4-yl)-5-(trifluoromethyl)-1H-pyrazole-4-carboxamide] | 8130
16 | 275 | 110 | 460 | 370 | 269 | Cc1ncnn1-c1ncc(NC(=O)c2cnn(-c3cncc4ccccc34)c2C(F)(F)F)cc1Cl [Cpd 54, N-(5-Chloro-6-(5-methyl-1H-1,2,4-triazol-1-yl)pyridin-3-yl)-1-(isoquinolin-4-yl)-5-(trifluoromethyl)-1H-pyrazole-4-carboxamide] | 8710
17 | 191 | 219 | ~2880 | 160 | 138 | O=C(Nc1ccnc(C(F)(F)F)c1)c1cnn(-c2cccc3ccccc23)c1C(F)(F)F [Cpd 3, 1-(Naphthalen-1-yl)-5-(trifluoromethyl)-N-(2-(trifluoromethyl)pyridin-4-yl)-1H-pyrazole-4-carboxamide] | 9550
